Read-outs that look alike come from different tables or passages of the source.
Key:
[1] = Solubility of the THGP octamer in purified water or methanol, with pH of the solution; type: physicochemical
Procedure: To 100 mg of the THGP octamer obtained in (1), the process of adding purified water or methanol in small portions and stirring for 30 minutes at room temperature was repeated, and the volume of the solution was measured when the THGP octamer was visually observed to as completely dissolved. The solubility of the THGP octamer (Solute Amount (g)/Total Mass (g)×100%) was calculated from the measured volume. Furthermore, the pH of the solution was measured when the THGP octamer was completely dissolved.

[2] = Dissolution rate: time to visually complete dissolution in purified water; type: physicochemical
Procedure: 100 mg of Ge-132 and 100 mg of the THGP octamer were added to 10 mL of purified water, respectively, and the mixtures were stirred at 300 rpm at room temperature, and then the time required to be visually observed as completely dissolved was measured.

[3] = cited from earlier work
[4] = conventional THGP polymers, stated as known property

Row | Substance | pH of the aqueous solution (in words) ([1]; dissolved in water) | solubility in methanol (Solute Amount (g)/Total Mass (g)×100%) ([1]; methanol, room temperature) [%] | solubility in water (Solute Amount (g)/Total Mass (g)×100%) ([1]; purified water, room temperature, visually complete dissolution) [%] | solubility (mass (g) of solute in 100 g of saturated solution) in water ([1]; water, 20° C.) [%] | pH of the aqueous solution ([1]; when completely dissolved in water) | time required to completely dissolve ([2]; 100 mg in 10 mL purified water, 300 rpm, room temperature) | dissolving time ([2]; water, 20° C., same conditions as Ge-132) | time required for the crystals to completely dissolve ([2]; 100 mg in 10 mL purified water (1% aqueous solution), 300 rpm, room temperature) [min] | time required for complete dissolution ([2]; 1% in water, 20° C.) [min] | solubility in organic solvents, such as methanol [3, 4] | solubility in water [3, 4] | solubility (mass (g) of solute in 100 g of saturated solution) in water ([3]; water, 20° C., known comparator value)
1 | 1,7,9,15-tetra(2′-sodium carboxyethylgermanium)-3,5,11,13-tetra-[sodium propanato(2-)-C^3′,O′]-germanium-2,4,6,8,10,12,14,16,17,18,19,20-dodecaoxa-pentacyclo[8.1^1,5.1^7,11.1^9,13.1^3,15.]icosane [THGP octamer] | neutral | 1.4 | 58.8 | 58.8 | around 7.5 | approximately 10 seconds | approximately 10 seconds |  |  |  |  | 
2 | poly-trans-[(2-carboxyethyl)germasesquioxane] [Ge-132] |  |  |  |  |  |  |  | ≥ 30 | ≥ 30 | insoluble | approximately 1% | approximately 1%

Source: patent US11981693B2, “Organogermanium compound” (ASAI Germanium Research Institute Co., Ltd., priority 2019, dated 2024)
